The values that follow come from patent US20190276871A1, “Antimicrobial Cartridges and Processes for Antimicrobial Susceptibility Testing” (SeLux Diagnostics, Inc., priority 2017, published 2019).

≈ marks a conversion by molar mass, not a printed value. Read-outs that look alike come from different tables or passages of the source.

Test [1] relates to patient sample microbes. Put plainly: Standard 96-well AST assay plate, antimicrobial panel 1. It is filed as cell-based. The text has this: (§1) Shown in Table 5 and Table 6, MIC results for antimicrobial panels 1 and 2 respectively using a master cartridge format and a 384 well patient cartridge (column 3) agrees reliably with that run by standard 96 well AST assay plate (right hand column).

The conditions of test [2]: MIC, antimicrobial panel 1; cited from earlier work.
Test [3] deals with patient sample microbes. Kind of test: AST on 384-well patient cartridge panel made from Master Plate, antimicrobial panel 1. It is filed as cell-based. To be noted: master cartridge format.
Text: (§2) An assay setup comprises preparation of patient (target) cartridge by dispensing antimicrobials were from the master cartridge or intermediate serial dilution cartridges into one or more 384 reservoir patient cartridge, each antimicrobial in about 7 serial dilutions in triplicate, and covering the dynamic range of each antimicrobial that is known to be effective and therefore should be reported. The dilution range included the expected minimum inhibitory concentration (MIC) for each antimicrobial. But most importantly, dilution ranges, that is, antimicrobial concentrations beyond the range known to be effective are included in the patient cartridge as per the present invention.
(§3) The remaining reservoirs of the 384 well patient cartridge are utilized for setting up test controls: a no-antimicrobial control (negative control) was included for each antimicrobial compound; and a positive control was included for each antimicrobial set, where a microorganism that is not susceptible to the antimicrobial was added to the well. Each control set was also dispensed at least in duplicate per 384 well cartridge. Additional test controls may be included as deemed necessary by one of skill in the art. Equal amount of a patient sample was dispensed to each of the wells in the cartridge, except in the wells designated for no-sample control, if included. The patient cartridge was ready for determination of susceptibility of microbes from the patient sample to the twelve antimicrobials at the range of concentrations applied, simultaneously. Multiple such plates can be set up in parallel for testing samples from multiple patients, each patient sample per plate. An AST assay was performed on the prepared patient cartridges.
as §1

The conditions of test [4]: MIC, antimicrobial panel 2; cited from earlier work.
Test [5] deals with patient sample microbes. Kind of test: Standard 96-well AST assay plate, antimicrobial panel 2. On the set-up: unit not given here. The class given is cell-based.
Text: as §1

Test [6] deals with patient sample microbes. Put plainly: AST on 384-well patient cartridge panel made from Master Plate, antimicrobial panel 2. It is filed as cell-based. On the set-up: unit not given here. Particulars: master cartridge format.
Text: as §2, §3, §1

Test [7] deals with clinical isolate of S aureus. Kind of test: Broth microdilution reference method. It is filed as cell-based. Particulars: read-out: MICs obtained from the broth microdilution reference method. Here is the method:
The antibiotics shown are vancomycin, daptomycin, ceftaroline and levofloxacin, of which the MICs obtained from the broth microdilution reference method for this strain were 0.5, 0.25, 0.12, and 0.25 μg/ml, respectively. A clinical isolate of S aureus was used. Data represents the TRF signal in RFUs. Graphs in the top row contain data from 384-well plates. Graphs in the bottom row contain data from 96-well plates.

In the case of `NCC[C@H](O)C(=O)N[C@@H]1C[C@H](N)[C@@H](O[C@H]2O[C@H](CN)[C@@H](O)[C@H](O)[C@H]2O)[C@H](O)[C@H]1O[C@H]1O[C@H](CO)[C@@H](O)[C@H](N)[C@H]1O` [Amikacin], the “MICs obtained from 96-well Antibiotic Panel” value in the test on patient sample microbes [1] is listed as 4. For the same molecule, in test [2], the “Quality Control Range” value was 0.5-4. The “MICs obtained from panel made from Master Plate” value (shortened to “MICs obtained from panel made”) against patient sample microbes [3] is on record as 4.

As to `CC1(C)S[C@@H]2[C@H](NC(=O)[C@H](N)c3ccccc3)C(=O)N2[C@H]1C(=O)O` [Ampicillin], the “MICs obtained from 96-well Antibiotic Panel” value against patient sample microbes [1] is on record as 8; against patient sample microbes [5], 1. Besides, the entries for the “Quality Control Range” value in test [4] and in test [2] were 0.5-2 and 2-8, respectively. Moreover, the figures for the “MICs obtained from panel made” value against patient sample microbes [6] and in the test on patient sample microbes [3] were 1 and 4, respectively.

On to `CO/N=C(\C(=O)N[C@@H]1C(=O)N2C(C(=O)[O-])=C(C[N+]3(C)CCCC3)CS[C@H]12)c1csc(N)n1` [Cefepime], for which the “MICs obtained from 96-well Antibiotic Panel” value in the test with patient sample microbes [1] is on record as no more than 0.03. For the same molecule, the “Quality Control Range” value in test [2] was 0.015-0.12. In addition, the “MICs obtained from panel made” value against patient sample microbes [3] is no more than 0.25.

On to `CCO/N=C(\C(=O)N[C@@H]1C(=O)N2C(C(=O)[O-])=C(Sc3nc(-c4cc[n+](C)cc4)cs3)CS[C@H]12)c1nsc(N)n1` [Ceftaroline], for which the “MICs obtained from 96-well Antibiotic Panel” value against patient sample microbes [5] stood at 0.25. Moreover, in test [7] (clinical isolate of S aureus), the MIC worked out at 0.12 µg/mL (≈ 0.198 µM). Further, the “MICs obtained from panel made” value against patient sample microbes [6] is 0.5.

As for `CC(C)(O/N=C(\C(=O)N[C@@H]1C(=O)N2C(C(=O)[O-])=C(C[n+]3ccccc3)CS[C@H]12)c1csc(N)n1)C(=O)O` [Ceftazidime], the entries for the “MICs obtained from 96-well Antibiotic Panel” value against patient sample microbes [1] and against patient sample microbes [5] were 0.25 and 8, respectively. Besides, the entries for the “Quality Control Range” value in test [4] and in test [2] were 4-16 and 0.06-0.5, respectively. The “MICs obtained from panel made” value against patient sample microbes [6] is 4; with patient sample microbes [3], less than 1.

As to `CO/N=C(\C(=O)N[C@@H]1C(=O)N2C(C(=O)O)=C(CSc3nc(=O)c(=O)[nH]n3C)CS[C@H]12)c1csc(N)n1` [Ceftriaxone], the figures for the “MICs obtained from 96-well Antibiotic Panel” value against patient sample microbes [1] and against patient sample microbes [5] were no more than 0.12 and 4, respectively. Also, the “Quality Control Range” value in test [4] is recorded as 1-8; in test [2], 0.03-0.12. For the same molecule, the results for the “MICs obtained from panel made” value with patient sample microbes [6] and in the test on patient sample microbes [3] were 2 and no more than 0.125, respectively.

With `C[C@H]1COc2c(N3CCN(C)CC3)c(F)cc3c(=O)c(C(=O)O)cn1c23` [Levofloxacin], the figures for the “MICs obtained from 96-well Antibiotic Panel” value in the test with patient sample microbes [1] and against patient sample microbes [5] were no more than 0.06 and 0.25, respectively. Besides, in test [7] (clinical isolate of S aureus), the MIC was found to be 0.25 µg/mL (≈ 0.692 µM). The “MICs obtained from panel made” value in the test on patient sample microbes [6] and against patient sample microbes [3] was no more than 0.25 in each case.

For `CC(=O)NC[C@H]1CN(c2ccc(N3CCOCC3)c(F)c2)C(=O)O1` [Linezolid], the “Quality Control Range” value in test [4] is given as 1-4. In the test on patient sample microbes [5], the “MICs obtained from 96-well Antibiotic Panel” value is 2. Besides, the “MICs obtained from panel made” value with patient sample microbes [6] turned out to be 2.

As for `Cc1onc(-c2ccccc2)c1C(=O)N[C@@H]1C(=O)N2[C@@H]1SC(C)(C)[C@@H]2C(=O)O` [Oxacillin], the “Quality Control Range” value in test [4] is recorded as 0.12-0.5. Also, the “MICs obtained from 96-well Antibiotic Panel” value against patient sample microbes [5] was found to be 0.5. In addition, the “MICs obtained from panel made” value in the test on patient sample microbes [6] came out at 0.5.

As for `CO[C@H]1/C=C/O[C@@]2(C)Oc3c(C)c(O)c4c(O)c(c(/C=N/N5CCN(C)CC5)c(O)c4c3C2=O)NC(=O)/C(C)=C\C=C\[C@H](C)[C@H](O)[C@@H](C)[C@@H](O)[C@@H](C)[C@H](OC(C)=O)[C@@H]1C` [Rifampin], in test [4], the “Quality Control Range” value was 0.004-0.015. Also, the “MICs obtained from 96-well Antibiotic Panel” value in the test on patient sample microbes [5] is 0.004. Besides, in the test with patient sample microbes [6], the “MICs obtained from panel made” value is no more than 0.25.

Consider `Cn1nnc(-c2ccc(-c3ccc(N4C[C@H](CO)OC4=O)cc3F)cn2)n1` [Tedizolid], for which, in test [4], the “Quality Control Range” value was 0.25-1. Also, the “MICs obtained from 96-well Antibiotic Panel” value in the test with patient sample microbes [5] turned out to be 0.5. Besides, the “MICs obtained from panel made” value in the test on patient sample microbes [6] is 0.25.

Turning to `NC[C@H]1O[C@H](O[C@H]2[C@H](O)[C@@H](O[C@H]3O[C@H](CO)[C@@H](O)[C@H](N)[C@H]3O)[C@H](N)C[C@@H]2N)[C@H](N)C[C@@H]1O` [Tobramycin], the “MICs obtained from 96-well Antibiotic Panel” value against patient sample microbes [1] turned out to be 1. For the same molecule, the “Quality Control Range” value in test [2] is on record as 0.25-1. For the same molecule, the “MICs obtained from panel made” value against patient sample microbes [3] came out at 0.5.

Turning to `CCCCCCCCCC(=O)N[C@@H](Cc1c[nH]c2ccccc12)C(=O)N[C@H](CC(N)=O)C(=O)N[C@@H](CC(=O)O)C(=O)N[C@@H]1C(=O)NCC(=O)N[C@@H](CCCN)C(=O)N[C@@H](CC(=O)O)C(=O)N[C@H](C)C(=O)N[C@@H](CC(=O)O)C(=O)NCC(=O)N[C@H](CO)C(=O)N[C@@H]([C@H](C)CC(=O)O)C(=O)N[C@@H](CC(=O)c2ccccc2N)C(=O)O[C@@H]1C` [daptomycin], in test [7] (clinical isolate of S aureus), the MIC was 0.25 µg/mL (≈ 0.154 µM).

On to `CN[C@H](CC(C)C)C(=O)N[C@H]1C(=O)N[C@@H](CC(N)=O)C(=O)N[C@H]2C(=O)N[C@H]3C(=O)N[C@H](C(=O)N[C@H](C(=O)O)c4cc(O)cc(O)c4-c4cc3ccc4O)[C@H](O)c3ccc(c(Cl)c3)Oc3cc2cc(c3O[C@@H]2O[C@H](CO)[C@@H](O)[C@H](O)[C@H]2O[C@H]2C[C@](C)(N)[C@H](O)[C@H](C)O2)Oc2ccc(cc2Cl)[C@H]1O` [vancomycin], for which the MIC in test [7] worked out at 0.5 µg/mL (≈ 0.345 µM).

In the case of Ampicillin-Sulbactam, in the test with patient sample microbes [1], the MICs obtained from 96-well Antibiotic Panel was 8 µg/mL. For the same molecule, the “Quality Control Range” value in test [2] is given as 2-8. For the same molecule, in the test on patient sample microbes [3], the MICs obtained from panel made from Master Plate is 8 µg/mL.

In the test on patient sample microbes [1], Piperacillin-tazobactam yielded an MICs obtained from 96-well Antibiotic Panel of 4 µg/mL. In test [2], the “Quality Control Range” value is 1-4. The MICs obtained from panel made from Master Plate with patient sample microbes [3] was no more than 1 µg/mL.
